Patent US20160333006A1, “ARYL LACTA KINASE INHIBITORS” (Bristol-Myers Squibb Company, priority 2014, published 2016)

What was measured:
[1] = target: T1, AAK1 (full length human) in HEK293F cells (Homo sapiens, UniProt Q2M2I8); assay: HEK281 cell-based assay (phospho-mu2 Western blot in transfected HEK293F cells); conditions: 3 hours, phospho-mu2, given as IC50 range
T1 construct: fused on or other part: HA tag (AAK1/HA in pIRES vector)
Protocol: On day one, cells were plated on a 10 cm dish so that they are ˜80% confluent at time oftransfection. Roughly 12 million cells were in a 10 cm dish at time of transfection. […] The DNA was comprised of a mixture (per 10 cm dish) containing 3 ug AAK1/HA/pIRES (full length human, NCBI accession no. NP_055726.2), 45 μg Flag/AP2MI/pcDNA (full length human), and 1.5 ml OPTI-MEM. The Lipofectamine 2000 is made up of a mixture (per 10 cm dish) containing 144 μl Lipofectamine 2000 and 1.5 ml OPTI-MEM. Each mixture was transferred to individual 15 ml tubes and incubated at RT for 5 minutes, and then the two mixes were combined and incubated at RT for 20 minutes. Growth media was then aspirated from each 10 cm plate and replaced with 10 ml of DMEM+10% FBS (no GPS). Finally, 3 ml DNA/Lipofectamine mix was added to each 10 cm dish and mix gently followed by incubate of plate overnight at 37° C. and 5% CO2.
On day three, compounds were diluted in 100% DMSO at 1000× final concentration, followed by 3-fold serial dilutions for a total of 5 concentrations tested. Four compounds were tested per 10 cm dish. One ul of each compound dilution was then pipetted into a deep-well, 96-well plate, followed by addition of 500 μl DMEM+0.5% FBS into each well for a 2× final concentration of each compound. Cells were resuspended in a 10 cm dish by simple pipetting (HEK293 cells come off the plate that easy at this point) and then transferred to a 50 ml conical tube and pelleted by centrifugation at 1000 rpm for 5 min. Cell pellets were then resuspended in 2.75 ml DMEM+0.5% FBS per 10 cm dish and 100 μl of cell suspension transferred into each well of 96-well TC plate. Finally, 100 μl of 2× compound diluted in DMEM+0.5% FBS was then added into wells containing cell suspension for a 1× final concentration. Plates were then incubated at 37° C. and 5% CO2 for 3 hours followed by transferring of cell suspensions from each well into 12-tube PCR strips. The PCR strips were spun in a tip rack at 1000 rpm for 5 minutes to pellet cells and media was then removed by pipetting without disturbing the cell pellet.
Five ul of 10× NuPage Sample Reducing Agent (with 50 mM DTT) was to each sample followed by heat denaturing at 70 C for 10 min on PCR machine. […] For controls, 2 ng of phospho-mu2 or 20 ng mu2/Flag proteins were loaded in the last well of each gel. After SDS-PAGE, samples on each gel were transferred to PVDF membrane using an iBlot and membranes were blocked for one hour in TBST+5% milk, followed by wash 3× for 5-10 min with TBST.
Finally, the camera was set up to take a picture every 30 seconds for 10 minutes and the best image saved for each blot with no saturated signal (when the signal is saturated, the bands will be highlighted red). A volume analysis on each band was performed to obtain density values. Percent inhibition was calculated for each sample by first normalizing to total Mu2 expression levels and then comparing to 0% and 100% controls. IC50 values were then calculated using Excel fitting software.

[2] = target: T2, GST-Xa-hAAK1 (Homo sapiens, UniProt Q2M2I8); assay: AAK1 kinase assay; assay type: biochemical; conditions: ATP 22 μM
T2 construct: made in house
Protocol: The assays were performed in U-bottom 384-well plates. […] The reactions were initiated by the combination of bacterially expressed, GST-Xa-hAAK1 with substrates and test compounds. The reactions were incubated at room temperature for 3 hours and terminated by adding 60 μl of 35 mM EDTA buffer to each sample. The reactions were analyzed on the Caliper LabChip 3000 (Caliper, Hopkinton, Mass.) by electrophoretic separation of the fluorescent substrate and phosphorylated product. […] Compounds were dissolved at 10 mM in dimethylsulfoxide (DMSO) and evaluated at eleven concentrations. IC50 values were derived by non-linear regression analysis.

T2 sequence (Q2M2I8 whole entry): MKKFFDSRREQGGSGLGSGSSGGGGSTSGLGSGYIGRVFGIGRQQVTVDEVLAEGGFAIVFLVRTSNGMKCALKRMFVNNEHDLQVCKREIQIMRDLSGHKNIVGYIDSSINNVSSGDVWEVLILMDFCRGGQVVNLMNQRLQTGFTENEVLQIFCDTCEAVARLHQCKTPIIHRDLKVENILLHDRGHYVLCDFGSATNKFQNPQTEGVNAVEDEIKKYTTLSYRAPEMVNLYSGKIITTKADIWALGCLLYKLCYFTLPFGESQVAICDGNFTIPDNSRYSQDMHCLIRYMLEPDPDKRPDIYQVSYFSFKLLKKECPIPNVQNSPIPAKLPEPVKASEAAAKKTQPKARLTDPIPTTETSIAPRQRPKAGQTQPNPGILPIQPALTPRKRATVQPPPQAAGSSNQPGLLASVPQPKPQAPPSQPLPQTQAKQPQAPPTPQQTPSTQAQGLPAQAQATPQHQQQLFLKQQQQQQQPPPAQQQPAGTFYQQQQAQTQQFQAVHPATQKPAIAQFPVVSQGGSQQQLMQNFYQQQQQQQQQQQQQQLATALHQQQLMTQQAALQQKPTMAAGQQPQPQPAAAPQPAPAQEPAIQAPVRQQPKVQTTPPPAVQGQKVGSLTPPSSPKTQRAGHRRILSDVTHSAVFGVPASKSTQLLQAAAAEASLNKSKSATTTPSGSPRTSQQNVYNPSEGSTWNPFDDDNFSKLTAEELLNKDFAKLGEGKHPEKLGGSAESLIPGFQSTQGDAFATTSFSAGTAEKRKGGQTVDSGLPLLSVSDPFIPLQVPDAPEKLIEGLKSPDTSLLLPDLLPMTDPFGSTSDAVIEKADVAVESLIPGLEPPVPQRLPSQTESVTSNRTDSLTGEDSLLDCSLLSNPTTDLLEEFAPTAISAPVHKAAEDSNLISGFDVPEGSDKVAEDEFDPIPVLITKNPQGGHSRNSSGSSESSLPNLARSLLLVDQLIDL
T1 sequence (Q2M2I8 1-822 limits assumed): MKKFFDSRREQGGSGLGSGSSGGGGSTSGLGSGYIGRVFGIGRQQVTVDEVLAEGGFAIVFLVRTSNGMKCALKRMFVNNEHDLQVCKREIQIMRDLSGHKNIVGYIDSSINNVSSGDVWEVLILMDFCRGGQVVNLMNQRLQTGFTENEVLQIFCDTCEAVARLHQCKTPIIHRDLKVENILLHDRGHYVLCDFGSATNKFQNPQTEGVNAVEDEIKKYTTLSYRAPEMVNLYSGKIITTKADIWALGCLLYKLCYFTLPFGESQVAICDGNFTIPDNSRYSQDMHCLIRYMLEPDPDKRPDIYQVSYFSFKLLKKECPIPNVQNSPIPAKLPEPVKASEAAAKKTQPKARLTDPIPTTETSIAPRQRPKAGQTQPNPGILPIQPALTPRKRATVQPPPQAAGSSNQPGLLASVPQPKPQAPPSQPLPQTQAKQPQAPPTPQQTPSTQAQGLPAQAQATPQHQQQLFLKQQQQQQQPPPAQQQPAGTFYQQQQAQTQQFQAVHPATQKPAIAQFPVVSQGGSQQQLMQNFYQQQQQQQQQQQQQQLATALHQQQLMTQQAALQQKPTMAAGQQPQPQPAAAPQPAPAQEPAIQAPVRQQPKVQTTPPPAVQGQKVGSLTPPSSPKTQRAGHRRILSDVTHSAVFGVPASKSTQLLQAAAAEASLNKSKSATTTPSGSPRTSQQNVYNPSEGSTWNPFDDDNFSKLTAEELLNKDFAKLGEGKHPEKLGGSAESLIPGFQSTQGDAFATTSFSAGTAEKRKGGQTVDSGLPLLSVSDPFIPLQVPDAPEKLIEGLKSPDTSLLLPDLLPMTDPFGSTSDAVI

Compound	IC50 [1] [nM]	IC50 ([2]; given as IC50 range) [nM]	IC50 ([2]; 3 hours at room temperature) [nM]
Cc1nccc2c1c(=O)n(C)c1cc(OCC(N)CC(F)(F)F)c(Br)cc21 (single isomer, unassigned) [Example 138, 8-(2-amino-4,4,4-trifluorobutoxy)-9-bromo-4,6-dimethylbenzo[c][2,7]naphthyridin-5(6H)-one]	10 to 100	1 to 10	–
Cc1nccc2c1c(=O)n(C)c1cc(OCC(N)CC(F)(F)F)c(Br)cc21 (single isomer, unassigned) [Example 139, 8-(2-amino-4,4,4-trifluorobutoxy)-9-bromo-4,6-dimethylbenzo[c][2,7]naphthyridin-5(6H)-one]	1 to 10	< 1	–
Cc1nccc2c1c(=O)n(C)c1cc(OC[C@@H](N)CC(C)C)c(-c3ccccn3)cc21 [Example 86, (S)-8-((2-amino-4-methylpentyl)oxy)-4,6-dimethyl-9-(pyridin-2-yl)benzo[c][2,7]naphthyridin-5(6H)-one]	10 to 100	10 to 100	–
CC(C)C[C@H](N)COc1cc2[nH]c(=O)c3cnccc3c2cc1Br [Example 108, (S)-8-((2-amino-4-methylpentyl)oxy)-9-bromobenzo[c][2,7]naphthyridin-5(6H)-one]	1 to 10	1 to 10	–
Cc1cc2c(cc1OC[C@@H](N)CC(C)C)[nH]c(=O)c1cnccc12 [Example 109, (S)-8-((2-amino-4-methylpentyl)oxy)-9-methylbenzo[c][2,7]naphthyridin-5(6H)-one]	1 to 10	1 to 10	–
Cn1c(=O)c2cnccc2c2cc(Br)c(OCC(N)CCC(F)(F)F)cc21 (stereo not drawn) [Example 113, 8-((2-amino-5,5,5-trifluoropentyl)oxy)-9-bromo-6-methylbenzo[c][2,7]naphthyridin-5(6H)-one]	1 to 10	1 to 10	–
Cn1c(=O)c2cnccc2c2cc(-c3cnco3)c(OCC(N)CCC(F)(F)F)cc21 (stereo not drawn) [Example 114, 8-((2-amino-5,5,5-trifluoropentyl)oxy)-6-methyl-9-(oxazol-5-yl)benzo[c][2,7]naphthyridin-5(6H)-one]	10 to 100	1 to 10	–
Cn1c(=O)c2c(N)nccc2c2ccc(OCC(N)CCC(F)(F)F)cc21 (stereo not drawn) [Example 119, 4-amino-8-((2-amino-5,5,5-trifluoropentyl)oxy)-6-methylbenzo[c][2,7]naphthyridin-5(6H)-one]	1 to 10	–	–
Cn1c(=O)c2c(N)nccc2c2ccc(OCC(N)CCC(F)(F)F)cc21 (stereo not drawn) [Example 120, 4-amino-8-((2-amino-5,5,5-trifluropentyl)oxy)-6-methylbenzo[c][2,7]naphthyridin-5(6H)-one]	1 to 10	–	–
Cc1nccc2c1c(=O)n(C)c1cc(OC[C@@H](N)CC(C)C)c(C3CC3)cc21 [Example 125, (S)-8-((2-amino-4-methylpentyl)oxy)-9-cyclopropyl-4,6-dimethylbenzo[c][2,7]naphthyridin-5(6H)-one]	–	1 to 10	–
Cc1nccc2c1c(=O)n(C)c1cc(OCC(N)CCC(F)(F)F)c(Br)cc21 (stereo not drawn) [Example 128, 8-((2-amino-5,5,5-trifluoropentyl)oxy)-9-bromo-4,6-dimethylbenzo[c][2,7]naphthyridin-5(6H)-one]	–	< 1	–
Cc1nccc2c1c(=O)n(C)c1cc(OC[C@@H](N)CC(C)C)c(C(C)C)cc21 [Example 130, (S)-8-((2-amino-4-methylpentyl)oxy)-9-isopropyl-4,6-dimethylbenzo[c][2,7]naphthyridin-5(6H)-one]	–	10 to 100	–
COCCn1c(=O)c2c(C)nccc2c2cc(Br)c(OC[C@@H](N)CC(C)C)cc21 [Example 131, (S)-8-((2-amino-4-methylpentyl)oxy)-9-bromo-6-(2-methoxyethyl)-4-methylbenzo[c][2,7]naphthyridin-5(6H)-one]	–	10 to 100	–
Cc1nccc2c1c(=O)n(CCO)c1cc(OC[C@@H](N)CC(C)C)c(Cl)cc21 [Example 132, (S)-8-((2-amino-4-methylpentyl)oxy)-9-chloro-6-(2-hydroxyethyl)-4-methylbenzo[c][2,7]naphthyridin-5(6H)-one]	–	< 1	–
Cc1nccc2c1c(=O)n(C)c1c(F)c(OC[C@@H](N)CC(C)C)c(Br)cc21 [Example 134, (S)-8-((2-amino-4-methylpentyl)oxy)-9-bromo-7-fluoro-4,6-dimethylbenzo[c][2,7]naphthyridin-5(6H)-one]	–	10 to 100	–
Cc1nccc2c1c(=O)n(C)c1cc(OCC(N)CC(F)(F)F)c(Br)cc21 (stereo not drawn) [Example 137, 8-(2-amino-4,4,4-trifluorobutoxy)-9-bromo-4,6-dimethylbenzo[c][2,7]naphthyridin-5(6H)-one]	–	1 to 10	–
COc1ccc2c3ccnc(C)c3c(=O)n(C)c2c1 [Example 144, 8-methoxy-4,6-dimethylbenzo[c][2,7]naphthyridin-5(6H)-one]	–	100 to 2000	–
CC(C)NCC(O)COc1ccc2c3ccncc3c(=O)n(C)c2c1 (stereo not drawn) [Example 146, 8-(2-hydroxy-3-(isopropylamino)propoxy)-6-methylbenzo[c][2,7]naphthyridin-5(6H)-one]	–	100 to 2000	–
Cc1nccc2c1c(=O)n(C)c1cc(OCC(O)CNC(C)C)ccc21 (stereo not drawn) [Example 147, 8-(2-hydroxy-3-(isopropylamino)propoxy)-4,6-dimethylbenzo[c][2,7]naphthyridin-5(6H)-one]	–	–	1330
Cc1nccc2c1c(=O)n(C)c1cc(OCC(O)CNC(C)C)c(Br)cc21 (stereo not drawn) [Example 149, 9-bromo-8-(2-hydroxy-3-(isopropylamino)propoxy)-4,6-dimethylbenzo[c][2,7]naphthyridin-5(6H)-one]	–	10 to 100	–
CC(C)CC(C)COc1ccc2c3ccncc3c(=O)n(C)c2c1 (stereo not drawn) [Example 150, 8-((2,4-dimethylpentyl)oxy)-6-methylbenzo[c][2,7]naphthyridin-5(6H)-one]	–	10 to 100	–
CC(C)CCCOc1ccc2c3ccncc3c(=O)n(C)c2c1 [Example 151, 6-methyl-8-((4-methylpentyl)oxy)benzo[c][2,7]naphthyridin-5(6H)-one]	–	10 to 100	–
Cc1nccc2c1c(=O)n(C)c1cc(OC[C@@H](O)CC(C)C)ccc21 [Example 152, (S)-8-((2-hydroxy-4-methylpentyl)oxy)-4,6-dimethylbenzo[c][2,7]naphthyridin-5(6H)-one]	–	10 to 100	–
Cc1nccc2c1c(=O)n(C)c1cc(OCC(O)COC(C)C)ccc21 (stereo not drawn) [Example 153, 8-(2-hydroxy-3-isopropoxypropoxy)-4,6-dimethylbenzo[c][2,7]naphthyridin-5(6H)-one]	–	100 to 2000	–
CC(C)CC(C)COc1cc2c(cc1Br)c1ccncc1c(=O)n2C (stereo not drawn) [Example 154, 9-bromo-8-((2,4-dimethylpentyl)oxy)-6-methylbenzo[c][2,7]naphthyridin-5(6H)-one]	–	10 to 100	–
Cc1nccc2c1c(=O)n(C)c1cc(OCC(C)CC(C)C)ccc21 (stereo not drawn) [Example 155, 8-((2,4-dimethylpentyl)oxy)-4,6-dimethylbenzo[c][2,7]naphthyridin-5(6H)-one]	–	100 to 2000	–
Cc1nccc2c1c(=O)n(C)c1cc(OCCCC(C)C)ccc21 [Example 156, 4,6-dimethyl-8-((4-methylpentyl)oxy)benzo[c][2,7]naphthyridin-5(6H)-one]	–	10 to 100	–
CC(C)CC(C)COc1ccc2c3ccncc3c(=O)n(C)c2c1 (stereo not drawn) [Example 157, 8-((2,4-dimethylpentyl)oxy)-6-methylbenzo[c][2,7]naphthyridin-5(6H)-one]	–	10 to 100	–
CC(C)CC(C)COc1ccc2c3ccncc3c(=O)n(C)c2c1 (stereo not drawn) [Example 158, 8-((2,4-dimethylpentyl)oxy)-6-methylbenzo[c][2,7]naphthyridin-5(6H)-one]	–	10 to 100	–
